How the values were obtained:
[1] = target: GDP-bound HRAS wild-type protein (Homo sapiens, UniProt P01112); assay: Binding to HRAS by surface plasmon resonance (SPR), Single Cycle Kinetics; settings: for HRAS/KRAS (ratio of KD value for HRAS to KD value for KRAS) / HRAS/KRAS (ratio of KD value with respect to HRAS to KD value with respect to KRAS): SPR, GDP-bound HRAS wild-type protein vs GDP-bound KRAS wild-type protein; for HRAS/KRAS (ratio of KD value with respect to GDP-bound HRAS wild-type protein to KD value with respect to KRAS): SPR KD ratio HRAS/KRAS, class symbols
[2] = target: GDP-bound NRAS wild-type protein (Homo sapiens, UniProt P01111); assay: Binding to NRAS by surface plasmon resonance (SPR), Single Cycle Kinetics; settings: for NRAS/KRAS (ratio of KD value for NRAS to KD value for KRAS) / NRAS/KRAS (ratio of KD value with respect to NRAS to KD value with respect to KRAS): SPR, GDP-bound NRAS wild-type protein vs GDP-bound KRAS wild-type protein; for NRAS/KRAS (ratio of KD value with respect to GDP-bound NRAS wild-type protein to KD value with respect to KRAS): SPR KD ratio NRAS/KRAS, class symbols
Chain of GDP-bound NRAS wild-type protein (P01111 whole entry): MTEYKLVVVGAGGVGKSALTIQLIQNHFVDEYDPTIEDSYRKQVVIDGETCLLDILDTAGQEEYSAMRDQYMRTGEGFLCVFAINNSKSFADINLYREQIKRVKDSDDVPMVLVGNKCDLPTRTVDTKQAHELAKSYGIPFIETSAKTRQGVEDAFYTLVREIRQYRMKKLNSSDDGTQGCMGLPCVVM

Chain of GDP-bound HRAS wild-type protein (P01112 whole entry): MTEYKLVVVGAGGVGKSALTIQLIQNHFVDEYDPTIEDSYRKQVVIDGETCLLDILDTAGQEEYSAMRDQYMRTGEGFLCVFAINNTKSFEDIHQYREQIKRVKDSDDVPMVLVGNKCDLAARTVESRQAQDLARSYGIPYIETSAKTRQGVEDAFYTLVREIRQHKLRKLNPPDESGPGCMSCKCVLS

SMILES	HRAS/KRAS (ratio of KD value for HRAS to KD value for KRAS) [1]	NRAS/KRAS (ratio of KD value for NRAS to KD value for KRAS) [2]	further results
CCO[C@@H]1C[C@H]2C(=O)NC3(CCC3)C(=O)N(C)[C@@H](C3CCCC3)C(=O)N(C)[C@H](C(=O)N3CCOCC3)CC(=O)N(C)[C@@H](COC3CC3)C(=O)N[C@@H]([C@@H](C)CC)C(=O)N(C)CC(=O)N(C)[C@H]3CCCCCN(C3=O)[C@@H](Cc3ccc(C(F)(F)F)cc3)C(=O)N(C)CC(=O)N[C@@H](CCc3cc(F)c(C(F)(F)F)c(F)c3)C(=O)N2C1 [PP0852]	B (a compound having 3 or more and less than 10 is denoted as B)	B (a compound having 3 or more and less than 10 is denoted as B)	–
CCO[C@@H]1C[C@H]2C(=O)NC3(CCC3)C(=O)N(C)[C@@H](C3CCCC3)C(=O)N(C)[C@H](C(=O)N(C)C)CC(=O)N(C)[C@@H](CC(C)C)C(=O)N[C@@H]([C@@H](C)CC)C(=O)N(C)CC(=O)N(C)[C@H]3CC(C)=CCN(C3=O)[C@@H](Cc3ccc(C(F)(F)F)cc3)C(=O)N(C)CC(=O)N[C@@H](CCc3cc(F)c(C(F)(F)F)c(F)c3)C(=O)N2C1 [PP1032]	C (A compound having a KD ratio of 0.1 or more and less than 3 is denoted as C)	C (A compound having a KD ratio of 0.1 or more and less than 3 is denoted as C)	–
CCC[C@H]1C(=O)N[C@@H]([C@@H](C)CC)C(=O)N(CCC)CC(=O)N(C)[C@H]2C/C=C\CCN(C2=O)[C@@H](Cc2ccc(C)cc2)C(=O)N(C)CC(=O)N[C@@H](CCc2cc(F)c(C(F)(F)F)c(F)c2)C(=O)N2C[C@H](OCC)C[C@H]2C(=O)NC2(CC(C)(C)C2)C(=O)N(C)[C@@H](C2CCCC2)C(=O)N(C)[C@H](C(=O)N(C)C)CC(=O)N1C [PP2108]	A (a compound having 10 or more and less than 20 is denoted as A)	A (a compound having 10 or more and less than 20 is denoted as A)	–
CC[C@H](C)[C@@H]1NC(=O)[C@H](CC(C)C)N(C)C(=O)C[C@@H](C(=O)N2CCOCC2)N(C)C(=O)[C@H](C2CCCC2)N(C)C(=O)C2(CCC2)NC(=O)[C@@H]2CC(F)(F)CN2C(=O)[C@H](CCc2ccc(C(F)(F)F)c(Cl)c2)NC(=O)CN(C)C(=O)[C@H](Cc2ccc(F)cc2)N2CCCCC[C@@H](C2=O)N(C)C(=O)CN(C)C1=O [PP0969]	B (a compound having 3 or more and less than 10 is denoted as B)	B (a compound having 3 or more and less than 10 is denoted as B)	–
CCO[C@@H]1C[C@H]2C(=O)NC3(CCC3)C(=O)N(C)[C@@H](C(CC)CC)C(=O)N(C)[C@H](C)CC(=O)N(C)[C@@H](CC(C)C)C(=O)N[C@@H]([C@@H](C)CC)C(=O)N(C)CC(=O)N(C)[C@H]3C/C=C\CCN(C3=O)[C@@H](Cc3ccc(F)cc3)C(=O)N(C)CC(=O)N[C@@H](CCc3cc(F)c(C(F)(F)F)c(F)c3)C(=O)N2C1 [PP1525]	–	–	HRAS/KRAS (ratio of KD value for HRAS to KD value for KRAS) ([1]; KD ratio class): A (a compound having 10 or more and less than 20 is denoted as A); NRAS/KRAS (ratio of KD value for NRAS to KD value for KRAS) ([2]; KD ratio class): A (a compound having 10 or more and less than 20 is denoted as A)
CCO[C@@H]1C[C@H]2C(=O)NC3(CCC3)C(=O)N(C)[C@@H](C3CCCC3)C(=O)N(C)[C@H](C(=O)N(C)C)CC(=O)N(C)[C@@H](CC3CCCC3)C(=O)N[C@@H]([C@@H](C)CC)C(=O)N(C)CC(=O)N(C)[C@H]3C/C=C\CCN(C3=O)[C@@H](Cc3ccc(C)cc3)C(=O)N(C)CC(=O)N[C@@H](CCc3ccc(C(F)(F)F)c(CC)c3)C(=O)N2C1 [PP2672]	–	–	HRAS/KRAS (ratio of KD value with respect to GDP-bound HRAS wild-type protein to KD value with respect to KRAS) [1]: B (a compound having 3 or more and less than 10 is denoted as B); NRAS/KRAS (ratio of KD value with respect to GDP-bound NRAS wild-type protein to KD value with respect to KRAS) [2]: B (a compound having 3 or more and less than 10 is denoted as B)
CCCOC[C@H]1C(=O)N[C@@H]([C@@H](C)CC)C(=O)N(C)CC(=O)N(C)[C@H]2C/C=C\CCN(C2=O)[C@@H](Cc2ccc(C)cc2)C(=O)N(C)CC(=O)N[C@@H](CCc2cc(F)c(C(F)(F)F)c(F)c2)C(=O)N2C[C@H](OCC)C[C@H]2C(=O)NC2(CC(C)(C)C2)C(=O)N(C)[C@@H](C2CCCC2)C(=O)N(C)[C@H](C(=O)N(CC)CC)CC(=O)N1C [PP1578]	–	–	HRAS/KRAS (ratio of KD value for HRAS to KD value for KRAS) ([1]; KD ratio class): A (a compound having 10 or more and less than 20 is denoted as A); NRAS/KRAS (ratio of KD value for NRAS to KD value for KRAS) ([2]; KD ratio class): A (a compound having 10 or more and less than 20 is denoted as A)
CCOC[C@H]1C(=O)N[C@@H]([C@@H](C)CC)C(=O)N(C)CC(=O)N(C)[C@H]2C/C=C\CCN(C2=O)[C@@H](Cc2ccc3c(c2)CCC3(F)F)C(=O)N(C)CC(=O)N[C@@H](CCc2ccc(C(F)(F)F)c(OC)c2)C(=O)N2C[C@@H](C)C[C@H]2C(=O)NC2(CC(C)(C)C2)C(=O)N(C)[C@@H](C2CCCC2)C(=O)N(C)[C@H](C(=O)N(C)CC)CC(=O)N1C [PP2704]	–	–	HRAS/KRAS (ratio of KD value with respect to GDP-bound HRAS wild-type protein to KD value with respect to KRAS) [1]: B (a compound having 3 or more and less than 10 is denoted as B); NRAS/KRAS (ratio of KD value with respect to GDP-bound NRAS wild-type protein to KD value with respect to KRAS) [2]: B (a compound having 3 or more and less than 10 is denoted as B)
CCO[C@@H]1C[C@H]2C(=O)NC3(CCC3)C(=O)N(C)[C@@H](C3CCCC3)C(=O)N(C)[C@H](C(=O)N3CCOCC3)CC(=O)N(C)[C@@H](CC3CC3)C(=O)N[C@@H]([C@@H](C)CC)C(=O)N(C)CC(=O)N(C)[C@H]3CCCCCN(C3=O)[C@@H](Cc3ccc(C(F)(F)F)cc3)C(=O)N(C)CC(=O)N[C@@H](CCc3cc(F)c(C(F)(F)F)c(F)c3)C(=O)N2C1 [PP0682]	–	–	HRAS/KRAS (ratio of KD value with respect to HRAS to KD value with respect to KRAS) [1]: B (a compound having 3 or more and less than 10 is denoted as B); NRAS/KRAS (ratio of KD value with respect to NRAS to KD value with respect to KRAS) [2]: B (a compound having 3 or more and less than 10 is denoted as B)
CCO[C@@H]1C[C@H]2C(=O)NC3(CCC3)C(=O)N(C)[C@@H](C3CCCC3)C(=O)N(C)[C@H](C(=O)N(C)C)CC(=O)N(C)[C@@H](CC(C)C)C(=O)N[C@@H]([C@@H](C)CC)C(=O)N(C)CC(=O)N(C)[C@H]3CCCCCN(C3=O)[C@@H](Cc3ccc(C(F)(F)F)cc3)C(=O)N(C)CC(=O)N[C@@H](CCc3cc(F)c(C(F)(F)F)c(F)c3)C(=O)N2C1 [PP0469]	–	–	HRAS/KRAS (ratio of KD value with respect to HRAS to KD value with respect to KRAS) [1]: B (a compound having 3 or more and less than 10 is denoted as B); NRAS/KRAS (ratio of KD value with respect to NRAS to KD value with respect to KRAS) [2]: B (a compound having 3 or more and less than 10 is denoted as B)
CCC[C@H]1C(=O)N[C@@H]([C@@H](C)CC)C(=O)N(C)CC(=O)N(C)[C@H]2C/C=C\CCN(C2=O)[C@@H](Cc2ccc(C(F)(F)F)cc2)C(=O)N(C)CC(=O)N[C@@H](CCc2ccc(C(F)(F)F)c(Cl)c2)C(=O)N2CC3(CC3)C[C@H]2C(=O)NC2(CC(C)(C)C2)C(=O)N(C)[C@@H](CC(F)(F)F)C(=O)N(C)[C@H](C(=O)N(C)C)CC(=O)N1C [PP2985]	A (a compound having 10 or more and less than 20 is denoted as A)	AA (a compound having 20 or more is denoted as AA)	–
CCO[C@@H]1C[C@H]2C(=O)NC3(CC(C)(C)C3)C(=O)N(C)[C@@H](C(CC)CC)C(=O)N(C)[C@H](C(=O)N(C)C)CC(=O)N(C)[C@@H](CC(C)C)C(=O)N[C@@H]([C@@H](C)CC)C(=O)N(C)CC(=O)N(C)[C@H]3C/C=C\CCN(C3=O)[C@@H](Cc3ccc(C)cc3)C(=O)N(C)CC(=O)N[C@@H](CCc3ccc(C(F)(F)F)c(Cl)c3)C(=O)N2C1 [PP2148]	A (a compound having 10 or more and less than 20 is denoted as A)	A (a compound having 10 or more and less than 20 is denoted as A)	–
CCC(CC)[C@H]1C(=O)N(C)[C@H](C(=O)N(C)C)CC(=O)N(C)[C@@H](COC)C(=O)N[C@@H]([C@@H](C)CC)C(=O)N(C)CC(=O)N(C)[C@H]2C/C=C\CCN(C2=O)[C@@H](Cc2ccc(C)cc2)C(=O)N(C)CC(=O)N[C@@H](CCc2ccc(Cl)c(Cl)c2)C(=O)N2CCCCC[C@H]2C(=O)NC2(CC(C)(C)C2)C(=O)N1C [PP2974]	A (a compound having 10 or more and less than 20 is denoted as A)	A (a compound having 10 or more and less than 20 is denoted as A)	–
CCC[C@H]1C(=O)N[C@@H]([C@@H](C)CC)C(=O)N(C2CC2)CC(=O)N(C)[C@H]2C/C=C\CCN(C2=O)[C@@H](Cc2ccc(C)cc2)C(=O)N(C)CC(=O)N[C@@H](CCc2ccc(C(F)(F)F)c(OC)c2)C(=O)N2C[C@H](OCC)C[C@H]2C(=O)N(C)C2(CCC2)C(=O)N(C)[C@@H](C(CC)CC)C(=O)N(C)[C@H](C(=O)N(C)C)CC(=O)N1C [PP2325]	A (a compound having 10 or more and less than 20 is denoted as A)	A (a compound having 10 or more and less than 20 is denoted as A)	–
CCO[C@@H]1C[C@H]2C(=O)NC3(CCC3)C(=O)N(C)[C@@H](C3CCCC3)C(=O)N(C)[C@H](C(=O)N(C)C)CC(=O)N(C)[C@@H](CC3CCCC3)C(=O)N[C@@H]([C@@H](C)CC)C(=O)N(C)CC(=O)N(C)[C@H]3C/C=C\CCN(C3=O)[C@@H](Cc3ccc(C)cc3)C(=O)N(C)CC(=O)N[C@@H](CCc3ccc(C4CC4)c(Cl)c3)C(=O)N2C1 [PP2684]	–	–	HRAS/KRAS (ratio of KD value with respect to GDP-bound HRAS wild-type protein to KD value with respect to KRAS) [1]: A (a compound having 10 or more and less than 20 is denoted as A); NRAS/KRAS (ratio of KD value with respect to GDP-bound NRAS wild-type protein to KD value with respect to KRAS) [2]: A (a compound having 10 or more and less than 20 is denoted as A)

Source: patent US20240158446A1, “CYCLIC COMPOUND HAVING SELECTIVE INHIBITORY ACTION ON KRAS OVER HRAS AND NRAS” (CHUGAI SEIYAKU KABUSHIKI KAISHA, priority 2021, published 2024)
